Test results as given in paper PMC9356726 (Molecular Biology and Evolution, 2022).

Tested on: AlmA
Type: biochemical, Streptomyces sp. A012304
Conditions: succinyl-CoA regenerated, 20 mM HEPES-NaOH pH 7.5, 20 μM PLP, 3 mM MgCl2, 37°C, 0.01 μM enzyme

Km: 6.8 ± 1.4 mM
SMILES: N[C@@H](CO)C(=O)O [serine]
